From paper PMC8466613, “Cocaine Detection by a Laser-Induced Immunofluorometric Biosensor” (Biosensors, 2021) come the findings set out here.

A word on the IC50: it is the concentration at which inhibition is half-maximal. Low values mean greater potency, high ones weaker potency.

The assay deals with T1, monoclonal anti-benzoylecgonine/cocaine (BEC) antibody IP3G2.
T1 construct: monoclonal antibody, clone IP3G2, mouse, subtype IgG1
Briefly: indirect competitive ELISA with chemiluminescence detection against BEC-BSA; also competitive immunofluorometric biosensor with Dy-654-labelled antibody. Type of assay: binding, Mus musculus. (In general: ELISA stands for enzyme-linked immunosorbent assay.)

As to `COC(=O)[C@H]1[C@@H](OC(=O)c2ccccc2)C[C@@H]2CC[C@H]1N2C` [cocaine], the IC50 is ~0.75 nM.
